Measured values: a melting point compilation (Tetko et al.; mined from patent text by program, amines drawn as free bases though some values may be those of a salt)

| Structure (SMILES) | melting point |
| --- | --- |
| CCN1CCN(C(C)C(=O)NC2(c3ccc4occc4c3)C(=O)Nc3cc(Cl)cc(Cl)c32)CC1 (single isomer, unassigned; (+)) | 137 to 138 °C |
| COC(=O)c1c(-c2ccccc2)n[nH]c1C | 119 to 120 °C |
| Nc1nc2c(nc(C#Cc3ccc(C(F)(F)F)cc3)n2C2OC(CO)C(O)C2O)c(=O)[nH]1 (stereo unspecified) | > 240 °C |
| CC(C)(C)NCC(O)COc1ccccc1Cc1cccc2[nH]ccc12 (stereo unspecified) | 78 °C |
| O=CC1C(c2ccc(F)cc2)CCC12C=Cc1ccccc12 (stereo unspecified) | 115 to 118 °C |
| CN1C(=O)N2CCOC2(c2ccccc2)c2cc(Cl)ccc21 (stereo unspecified) | 124 to 125 °C |
| CCOC(=O)c1c(SC)nn(-c2c(Cl)cc(Cl)cc2Cl)c1C | 95 to 98 °C |
| COC(=N)c1ccc(Br)cc1 | 64 to 65 °C |
| CCOC(=O)C1=CC2(CCC1S(=O)(=O)Nc1ccc(F)cc1Cl)OC1COCC1O2 (stereo unspecified) | 227 to 228 °C |
| COC(=O)CCCCCSC1=CC(OC2CCCCO2)CC1=O (stereo unspecified) | 41 to 42 °C |
| CCCCCCCCCCCCCCCC(=O)SC1CCN(C(C(=O)OC)c2ccccc2F)CC1 (stereo unspecified) | 44 to 47 °C |
| COc1cc(C)c(C(=O)c2c(OC)cncc2C(F)(F)F)c(OC)c1OC | 103 to 106 °C |
| COc1ccc(C(Cc2cnccn2)c2ccccc2)cc1OC1CCCC1 (stereo unspecified) | 71.5 to 72 °C |
| N#Cc1ccc2c(c1)OC(=O)C(Br)C2Br (stereo unspecified) | 220 to 230 °C |
| Cc1cc(F)cc(C=O)c1O | 49 to 52 °C |
| CCOC(=O)C(=CN)C(=O)c1cc(F)c(Cl)c([N+](=O)[O-])c1Cl | 113 to 114 °C |
| CC(=O)c1ccc2c(c1)OCC(C(=O)O)O2 (stereo unspecified) | 159 to 162 °C |
| CC(C)(C)c1cc(OCCCCCc2nnn[nH]2)cc(C(C)(C)C)c1O | 140 to 141 °C |
| Cc1cccc2c1CCN=C2c1ccc(Cl)cc1 | 66 to 67 °C |
| CCc1cc(S(=O)(=O)c2ccc(N)cc2)cc(N2CCCC2)n1 | 154 to 155 °C |
| CCCc1c(C(N)=O)sc(SC)c1-c1oncc1-c1ccccc1 | 140 to 141 °C |
| Cc1cccc2c(Nc3cc(CO)cc(NC(=O)Oc4ccc(N(CCCl)CCCl)cc4)c3)c3ccccc3nc12 | 229 to 231 °C |
| O=c1c2cnn(Cc3ccccc3)c2nc2n1CCS2 | 180 to 182 °C |
| CC(C#N)(Cn1ncc2cc([N+](=O)[O-])ccc21)NC(=O)c1ccc(OC(F)(F)F)cc1 (stereo unspecified) | 203 to 205 °C |
| CC1(C)Cc2cc(C3=NNC(=O)C4CC34)ccc2NC1=O (stereo unspecified) | 275 to 277 °C |
| O=C(Nc1cnn2ccccc12)C1CC1 | 159 to 162 °C |

| Structure (SMILES) | melting point |
| --- | --- |
| CCC1=C(C)C(=O)NC1=CBr | 250 to 251 °C |
| CSCCCn1nc(-c2cccc(C(F)(F)F)c2F)c(=O)c2ccccc21 | 80 to 83 °C |
| OCc1cc(OC2CCCC2)c(OC(F)F)cn1 | 85 to 86 °C |
| CCCCc1nc2cncc(C)c2[nH]1 | 111 to 124 °C |
| CC(C)c1ccc(NC(=O)Oc2ccc3c(c2)CCN3)cc1 | 166 to 170 °C |
| CCOc1ccc(CC)cc1-c1nc2ccc(C(=O)O)cc2c(=O)[nH]1 | > 310 °C |
| CNC(=O)Sc1ncc(Cl)cn1 | 115 °C |
| COc1ccccc1[C@@]1(O)[C@H](O)CC(c2ccccc2)(c2ccccc2)[C@@H]2CN(C(=O)Cc3ccccc3N3CCCC3)C[C@@H]21 (racemic) | 236 °C |
| O=C(CCCCCBr)c1ccccc1 | 35 to 36 °C |
| CC(C)(C)C(=O)OCn1nc2ccc(NCCCN3CCC(OC(c4ccccc4)c4ccccc4)CC3)nn2c1=O | 168 to 171 °C |
| N#CCCn1nc(-c2ccc(OCc3ccccc3)cc2)oc1=O | 136 °C |
| CN1CCOc2cc(O)ccc21 | 84 to 87 °C |
| O=S(=O)(NC1CCC(O)CC1)c1ccc(Cl)cc1 (stereo unspecified) | 138 to 142 °C |
| CC(=O)OCC1OC(n2cc(C)c(=S)[nH]c2=S)CC1F (stereo unspecified) | 113 to 114 °C |
| CCC1=CC(=O)C2(C)CCC3c4ccc(OC)cc4CCC3C12 (stereo unspecified) | 103 to 106 °C |
| CC(C)(C)c1ccc(OCC(O)CN2CCCC3(CSC4=C(O3)c3ccccc3C(=O)C4=O)C2)cc1 (stereo unspecified) | 90 to 92 °C |
| CCS(=O)(=O)CC(=O)Nc1c(C)cccc1C | 128 to 130 °C |
| CC(=O)Oc1ccc(-c2cnc[nH]c2=O)cc1OC(C)=O | 183 to 184 °C |
| CCc1c(Cl)c(CC)c(-c2c(O)c(C)nn(C)c2=O)c(CC)c1Cl | 266 to 267 °C |
| CCOC(=O)c1nc(C=Cc2cccc(Cl)c2)oc1C | 116 to 117 °C |
| CCN1CN(C)C(=S)N(c2cc(Cl)ccc2C)C1 | 93 to 95 °C |
| COc1cccc(C23CCCC=C2C(=O)N(C)C(=O)C3)c1 (stereo unspecified) | 139 to 141 °C |
| COCn1c(C)nc2c(O)cc(C(=O)N(C)C)cc21 | 173 to 183 °C |
| N=C(Cl)c1c(Cc2ccc(Cl)cc2)nc2ccc(I)cc2c1O | 172 to 174 °C |
| Cn1c(C(F)(F)F)cc(=O)n(-c2cc(OC(=O)Oc3ccccc3)c(Cl)cc2F)c1=O | 112 to 115 °C |
| COC(=O)c1ccc(Cl)cc1NC(=O)CSc1cccc(OC)c1 | 72 to 73 °C |

| Structure (SMILES) | melting point |
| --- | --- |
| NS(=O)(=O)Oc1cccc(I)c1 | 106 to 108 °C |
| Cc1oc(-c2ccccc2)nc1COc1ccc(/C=C/C=O)cn1 | 147 to 148 °C |
| C[C@H]1CC[C@H]2C(C)(C)C(=NN3CCOCC3)CC[C@]23Oc2c(c(O)cc4c2CNC4=O)C[C@]13C | 202 to 205 °C |
| COc1ccccc1CN[C@H]1CCCN(CCCCCc2ccccc2)[C@H]1c1ccccc1 (relative stereo) | 109 °C |
| COc1ccc2c(c1OCc1ccccc1)CC(C(=O)O)N(C(=O)N(C)c1ccccc1)C2 (racemic) | 134 to 136 °C |
| CCC(C)c1c(Cl)nc(NC=O)nc1Cl (stereo unspecified) | 92 to 93 °C |
| COC(=O)c1c(N)cccc1S(=O)(=O)NC(C)(C)C | 132 to 133 °C |
| Cc1cc(O)n2nc(S(=O)(=O)Nc3c(Cl)ccc(C)c3Cl)nc2n1 | 346 to 347 °C |
| CC1=NS(=O)(=O)N(C)C(Oc2ccc([N+](=O)[O-])cc2)=N1 | 194 to 197 °C |
| COCc1cc(O[C@@H]2c3ccccc3C[C@H]2O)c2nc(C)c(C)n2c1 (relative stereo) | 142 to 143 °C |
| CN(C)C(=O)N(C)c1nnc(C(C)(C)C#N)s1 | 92 to 94 °C |
| COC(=O)CS(=O)(=O)Nc1nc(-c2ncccc2C)cc2cccnc12 | 147 to 148 °C |
| CC(=O)c1ccc(NC(=O)Nc2ccc(S(N)(=O)=O)cc2)cc1 | 258 to 260 °C |
| COc1cc(Nc2nnc(Cc3ccncc3)c3ccccc23)cc(OC)c1OC | 110 to 111 °C |
| O=C(c1ccnc(F)c1)N1CCC[C@H](c2nc(-c3ccc(F)cc3)no2)C1 | 93 to 95 °C |
| CS(=O)(=O)c1ccc(-c2nn3ccoc3c2-c2ccc(F)cc2)cc1 | 67 to 70 °C |
| N#CC1=C(c2cccs2)Nc2n[nH]cc2C1c1cccc2nsnc12 (stereo unspecified) | 254 °C |
| CCC(CC)COc1c(-c2ccc(S(C)(=O)=O)cc2)cnn(-c2ccc(F)cc2)c1=O | 107 to 108 °C |
| CNc1nc(-c2cc3cccc(N(C)S(=O)(=O)c4cccs4)c3[nH]2)cs1 | 162 to 163 °C |
| NS(=O)(=O)c1cc2c(s1)S(=O)(=O)C(CCO)CN2 (stereo unspecified) | 158 to 160 °C |
| CNC(=O)c1cccc(NC(=O)COc2ccccc2Cl)c1 | 172 to 173 °C |
| O=C(Cc1ccc(Cl)cc1Cl)N1CCN(c2cnccn2)CC1 | 124 to 125 °C |
| CCOC(=O)c1cn(-c2ccc(OC)cc2)cn1 | 93 to 94 °C |
| Cc1ccc(S(=O)(=O)NC(=O)OCCc2ccc(-n3c(CCCc4cccnc4)nc4cc(C(F)(F)F)c(Cl)cc43)cc2)cc1 | 90 to 95 °C |
| COc1ccc(C2c3ccccc3C(c3ccccc3)C2C(=O)O)cc1 (stereo unspecified) | 164 to 166 °C |
| CCOC(=O)c1cc(C(=O)OCC)c(N)[nH]1 | 147 to 149 °C |

| Structure (SMILES) | melting point |
| --- | --- |
| CC(C)c1nn(-c2ccc(C(F)(F)F)nn2)cc1CCCO | 113 to 114 °C |
| COc1ccc(C2=NN(C3CCN(C(=O)NC(C)(C)C)CC3)C(=O)CC2)cc1OC | 76 to 78 °C |
| COc1ccc2nc(COc3cccc(C(=O)Nc4cc(CCCS(=O)(=O)c5ccc(Cl)cc5)ccc4OCC(=O)O)c3)sc2c1 | 187 to 189 °C |
| COC(=O)C(c1ccccc1)c1ccccn1 (racemic) | 74 °C |
| COc1ccc2c(c1)C(=O)N(c1ccc3cccnc3c1)C2 | 220 to 223 °C |
| CC(=O)Oc1ccc(CCc2cc(OC(C)=O)cc(OC(C)=O)c2)cc1 | 52 to 52.5 °C |
| Cn1cc(S(C)(=O)=O)c(=O)c2ccc(C(F)(F)F)cc21 | 300 to 301 °C |
| CC(C)(C)[Si](C)(C)C(F)(F)F | 52 to 54 °C |
| CCOc1ccc(C(=O)C2CC2)cc1 | 67 to 70 °C |
| Cc1cccc(-c2[nH]c(C(C)(C)C)nc2-c2ccnc(-c3ccc(CN(C)C)cc3)c2)n1 | 187 °C |
| O=C(O)c1ccc(CCCc2ccc(Br)cc2OCc2ccccc2)cc1 | 141 to 142 °C |
| CNC(=O)CNC(=O)c1ccc(C)c(-n2c(C)cc(OCc3ccccc3CNC(=O)Nc3cc(C(C)(C)C)nn3-c3ccc(Cl)c(O)c3)c(Cl)c2=O)c1 | 179 to 181 °C |
| COc1cc(C)nc(OC)c1NC(=O)CN1CCN(CCSc2nc3ccccc3o2)CC1 | 113 to 115 °C |
| COC(=O)C1CCCN(C(=O)OCc2ccccc2)N1C(=O)C(Br)CBr (stereo unspecified) | 132 to 134 °C |
| CN(c1ccccc1)c1nc(N(C)c2ccccc2)c2ccsc2n1 | 85 to 87 °C |
| O=C1c2c(Br)cccc2-n2cnc(-c3noc(CCl)n3)c2[C@@H]2CCCN12 | 242 to 244 °C |
| CCC(CC)n1cc(Br)nc(N2CCc3cc(OC)cc(C)c32)c1=O | 152 to 154 °C |
| Clc1cccc(C(c2ccccc2)(c2ccccc2)n2ccnc2)c1 | 101 °C |
| CC(=O)c1cccc(-c2ccc(OC3SCC(O)C(O)C3O)cn2)c1 (stereo unspecified) | 159 to 163 °C |
| CC(=O)NCC1CC1c1c(-c2cccnc2)ccc2nn(C)cc12 (stereo unspecified) | 136 to 138 °C |
| CN(CCNc1ccc2nc(NC(=O)c3ccc(C(C)(C)C)cc3)cn2n1)C(=O)OC(C)(C)C | 200 to 201 °C |
| COC(=O)CCCSC(=S)NCc1ccc(Cl)cc1 | 60 to 62 °C |
| CCCC[C@H](NC(=O)[C@@H](NC(=O)OCc1ccccc1)[C@@H](C)CC)C(=O)CSCc1ccco1 | 101 to 103 °C |
